According to patent US20240197761A1, “FUCOSYLATION AND IMMUNE MODULATION IN CANCER” (H. LEE MOFFITT CANCER CENTER AND RESEARCH INSTITUTE, INC., priority 2021, published 2024):

Columns and labels:
[1] = tested on: BM-derived MDSCs; test: NO production of BM-derived MDSCs (Greiss assay); type: cell-based, Balb/C mice; conditions: 250 uM L-fuc prior, during and/or after GM/G-CSF stimulation
Experimental: Tlhe myeloid cells, which were stimulated to imlmuno, suppressive MDSCs using GM/G-CSF, were divided into 3 treatment groups: (i) Treatment±250 uM L-fuc prior, duri ng, and after GM/G-CSF stimulation. Treatment±250 uM L-fuc during and after GM/G-CSF stimulation. (ii) Treatment±250 uM L-fuc only after GM/G-CSF stimulation. Greiss assay timepoints reier to hours after initial dose of L-fuc regardless of when cells were treated, L-fuc abrogated their ability to glenerate NO. […] We subsequently co-cultured the modulated MDSCs wilh T cells, which were then activated or not with CD3/CD28 beads and measured for IFNψ production. *. p •<0.05

[2] = tested on: SM1 tumors; test: Anti-PD-1 mouse model, SM1: tumor growth and flow cytometric profiling of tumors and draining lymph nodes (Table 2); type: in vivo, C57BL/6 mice
From the text: FIGS. 21A and 21B Administration of combination L-fucose and anti-PD-1 suppresses tumors and increases intra-tumoral CD4+T central and effector memory cells (a) Volumetric growth curves for SW1 tumors in C3H/HeN mice (left) and SM1 tumors in C57BL/6 mice (right) fed L-fucose (LF) and treated with PBS (control) or anti-PD-1. (concurrent initiation of LF anti-PD1 (▾)). The tumor growth curves are means±SEM from ≥7 mice per group. (b) Volumetric growth curves for SM1 tumors in C57BL/6 mice fed ±L-fucose (LF) and treated with PBS (control) or anti-PD-1 (PD-1). (concurrent initiation of LF±PD1 (▾)). The tumor growth curves are means±SEM from ≥7 mice per group. *=p<0.05. At Day 7 (prior to administration of LF or PD1), Day 21 (endpoint for tumors of control-treated mice), Day 31 (endpoint for tumors of LF-treated mice), Day 63 (endpoint for tumors of PD1-treated mice), the primary tumors (Tumor) and draining lymph nodes (LN) of 4-5 mice per treatment group were analyzed by flow cytometry for intratumor levels of CD4+ and CD8+T subpopulations (naive/terminal, stem central/central/effector memory) and dendritic cell (DC) subpopulations (cDC1, cDC2, and monocyte-derived DC (moDC)) as in FIG. 15. Proportions of CD4+, CD8+, and DC subpopulations in each organ at each timepoints are represented by the color-coded pie charts (each pie chart represents 4-5 mice). Absolute numbers of the subpopulations per […] of tumor/tissue homogenate at each timepoint are represented in the color-coded column charts.
Tumors of SW1 or SM1 melanoma cells from […] or C57BL/6 mice, respectively) were digested using 1× tumor digest buffer (0.5 mg/mL Collagenase I, 0.5 mg/mL Collagenase IV, 0.25 mg/mL Hyalyronidase V, 0.1 mg/mL DNAse I in HBSS (Millipore Sigma (St. Louis, MO)). Tumors were homogenized using the Miltenyi MACs dissociator. Red blood cells were lysed using ACK lysis buffer (Life Technologies, (Grand Island, NY)). Tumor homogenate cells were counted using a standard hemocytometer.
Total TILs were gated first to single cells (based on forward scatter height vs width, followed by side scatter height vs. width). Live cells were gated from the Zombie negative population from the population above. TILs were gated based on splenocyte size from a control spleen. Individual immune subpopulations were sub-gated from the total TIL population using the following staining criteria: CD3+ for CD3+ T cells; CD3+/CD4+/CD8− for CD4+T cells; CD3+/CD4−/CD8+ for CD8+ T cells, CD11c+/CD11b+ for DCs; either NK1.1 (for C57/BL6 mice) or DX5 (for C3H/HeJ) for NK cells; CD11b+/GR1+ for MDSC-like cells; and F4/80+ for macrophages. Single-cell suspensions from tumor and spleen tissue were stained with Live/Dead Zombie NIR (Biolegend, (San Diego, CA)) at 1:1,000 in PBS for 20 min. Cell suspensions were spun down and stained with the following with antibodies at 0.5 μg/ml per antibody: APC anti-mouse CD3, Pacific Blue anti-mouse CD4, BV785 anti-mouse CD8, PerCP anti-mouse CD25, FITC anti-mouse F4/80, PeCy7 anti-mouse CD11c, PE anti-mouse NK1.1 or PE anti-mouse DX5, and PerCP-Cy5.5 anti-mouse CD11 b. After staining, the cells were washed and fixed (2% formaldehyde), followed by another wash and flow cytometric analysis. The compensation controls were prepared using 0.5 μg/mL of each antibody with UltraComp eBeads, (ThermoFisher Scientific (Waltham, MA)). All samples were subject to flow cytometric profiling using a LSR Flow Cytometer (BD Biosciences (San Jose, CA)) and analysis as indicated using FlowJo software (BD Biosciences (San Jose, CA)).
SW1 or SM1 mouse melanoma cells were injected into syngeneic C3H/HeN female or C57BL/6 male mice, respectively. After approximately 7 days, when the mice tumors reached −150 mm^3, the mice were either supplemented with or without 100 mM L-fucose (Biosynth (Oak Terrace, IL)) via drinking water, which was provided ad libitum. […]

SMILES: C[C@H](O)[C@@H](O)[C@@H](O)[C@H](O)C=O [L-fucose]
- NO production [1]: abrogated
- CD4 central memory, average # of cells ([2]; Day 21, lymph nodes): 592.12 per 10^6 cells of total tumor
- CD4 effector memory, average # of cells ([2]; Day 21, lymph nodes): 1155.12 per 10^6 cells of total tumor
- CD4 naïve, average # of cells ([2]; Day 21, lymph nodes): 24832.36 per 10^6 cells of total tumor
- CD4 stem central memory, average # of cells ([2]; Day 21, lymph nodes): 512.17 per 10^6 cells of total tumor
- CD8 central memory, average # of cells ([2]; Day 21, lymph nodes): 1017.54 per 10^6 cells of total tumor
- CD8 effector memory, average # of cells ([2]; Day 21, lymph nodes): 4093.80 per 10^6 cells of total tumor
- CD8 naïve, average # of cells ([2]; Day 21, lymph nodes): 11896.39 per 10^6 cells of total tumor
- CD8 stem central memory, average # of cells ([2]; Day 21, lymph nodes): 192.89 per 10^6 cells of total tumor
- cDC1, average # of cells ([2]; Day 21, lymph nodes): 9395.57 per 10^6 cells of total tumor
- cDC2, average # of cells ([2]; Day 21, lymph nodes): 13997.11 per 10^6 cells of total tumor
- moDC, average # of cells ([2]; Day 21, lymph nodes): 1788.45 per 10^6 cells of total tumor
- CD4+ CRTAM+, average # of cells ([2]; Day 21, tumors): 361.60 per 10^6 cells of total tumor
- CD4 central memory, average # of cells ([2]; Day 21, tumors): 19.50 per 10^6 cells of total tumor
- CD4 effector memory, average # of cells ([2]; Day 21, tumors): 302.98 per 10^6 cells of total tumor
- CD4 naïve, average # of cells ([2]; Day 21, tumors): 186.42 per 10^6 cells of total tumor
- CD4 stem central memory, average # of cells ([2]; Day 21, tumors): 3.22 per 10^6 cells of total tumor
- CD8+ GRZB+, average # of cells ([2]; Day 21, tumors): 14146.30 per 10^6 cells of total tumor
- CD8 central memory, average # of cells ([2]; Day 21, tumors): 25.37 per 10^6 cells of total tumor
- CD8 effector memory, average # of cells ([2]; Day 21, tumors): 889.74 per 10^6 cells of total tumor
- CD8 naïve, average # of cells ([2]; Day 21, tumors): 81.09 per 10^6 cells of total tumor
- CD8 stem central memory, average # of cells ([2]; Day 21, tumors): 1.53 per 10^6 cells of total tumor
- cDC1, average # of cells ([2]; Day 21, tumors): 2032.24 per 10^6 cells of total tumor
- cDC2, average # of cells ([2]; Day 21, tumors): 12762.45 per 10^6 cells of total tumor
- moDC, average # of cells ([2]; Day 21, tumors): 570.99 per 10^6 cells of total tumor
- CD4 central memory, average # of cells ([2]; Day 31, lymph nodes): 424.67 per 10^6 cells of total tumor
- CD4 effector memory, average # of cells ([2]; Day 31, lymph nodes): 6638.79 per 10^6 cells of total tumor
- CD4 naïve, average # of cells ([2]; Day 31, lymph nodes): 30715.03 per 10^6 cells of total tumor
- CD4 stem central memory, average # of cells ([2]; Day 31, lymph nodes): 408.72 per 10^6 cells of total tumor
- CD8 central memory, average # of cells ([2]; Day 31, lymph nodes): 286.54 per 10^6 cells of total tumor
- CD8 effector memory, average # of cells ([2]; Day 31, lymph nodes): 2478.29 per 10^6 cells of total tumor
- CD8 naïve, average # of cells ([2]; Day 31, lymph nodes): 12415.41 per 10^6 cells of total tumor
- CD8 stem central memory, average # of cells ([2]; Day 31, lymph nodes): 56.84 per 10^6 cells of total tumor
- cDC1, average # of cells ([2]; Day 31, lymph nodes): 5781.73 per 10^6 cells of total tumor
- cDC2, average # of cells ([2]; Day 31, lymph nodes): 22628.85 per 10^6 cells of total tumor
- moDC, average # of cells ([2]; Day 31, lymph nodes): 7315.56 per 10^6 cells of total tumor
- CD4+ CRTAM+, average # of cells ([2]; Day 31, tumors): 112.92 per 10^6 cells of total tumor
- CD4 central memory, average # of cells ([2]; Day 31, tumors): 28.68 per 10^6 cells of total tumor
- CD4 effector memory, average # of cells ([2]; Day 31, tumors): 297.82 per 10^6 cells of total tumor
- CD4 naïve, average # of cells ([2]; Day 31, tumors): 401.23 per 10^6 cells of total tumor
- CD4 stem central memory, average # of cells ([2]; Day 31, tumors): 6.29 per 10^6 cells of total tumor
- CD8+ GRZB+, average # of cells ([2]; Day 31, tumors): 5679.05 per 10^6 cells of total tumor
- CD8 central memory, average # of cells ([2]; Day 31, tumors): 26.40 per 10^6 cells of total tumor
- CD8 effector memory, average # of cells ([2]; Day 31, tumors): 202.98 per 10^6 cells of total tumor
- CD8 naïve, average # of cells ([2]; Day 31, tumors): 223.96 per 10^6 cells of total tumor
- CD8 stem central memory, average # of cells ([2]; Day 31, tumors): 3.15 per 10^6 cells of total tumor
- cDC1, average # of cells ([2]; Day 31, tumors): 200.82 per 10^6 cells of total tumor
- cDC2, average # of cells ([2]; Day 31, tumors): 5753.01 per 10^6 cells of total tumor
- moDC, average # of cells ([2]; Day 31, tumors): 1107.62 per 10^6 cells of total tumor
- intratumoral CD4+T central and effector memory cells ([2]; L-fuc alone (FIG. 21b)): increased
- tumor suppression in combination with anti-PD1 ([2]; SM1 model): augmented durable suppression
- tumor suppression, single agent ([2]; SM1 model (FIG. 21a right)): less tumor suppressive than anti-PD1 alone
